Experimental data as given in patent US6894068B2, “Substituted benzimidazoles as non-nucleoside inhibitors of reverse transcriptase” (The United States of America as represented by the …, priority 1997, dated 2005).
Entries after “also recorded” stand apart in the source; their conditions may differ. Like-named read-outs stand apart in the source and are kept apart here.

What was measured:
HIV-1 isolate Y188H = experiment: Cytopathic cell killing assay, isolate Y188H; format: cell-based; settings: Human immunodeficiency virus 1, read-out: EC50, isolate Y188H
Description: (§1) The various HIV isolates tested in the Figures are those corresponding to wild-type virus (NL4-3) and the other strains listed by their RT mutations. The three 4×AZT isolates included in the Figures represent AZT drug-resistant variants. For example, the 4×AZT/L100I isolate has five mutations: four mutations confer increased resistance to AZT, and the other mutation is located within the NNRTI binding pocket. TZB and nevir. (nevirapine) are two well-known NNRTIs, included in this experiment for comparison purposes.
(§2) In this Example, the antiviral and cellular toxicity of NNRTIs was investigated, using the cytopathic cell killing assay described by Yang (Yang et al., “Characteristics of a Group of Non-nucleoside Reverse Transcriptase Inhibitors with Structural Diversity and Potent Anti-Human Immunodeficiency Virus Activity,” Leukemia 9:S75-S85 [1995]). Briefly, in this method cells (e.g., the CEM-SS cell line, available from the NIAID AIDS Research and Reference Program [ARRRP]) were seeded at a density of 5×10^3 cells/well, into the wells of a 96-well microtiter plate. The cells were then infected with HIV virus (either mutant or WT), at a multiplicity of infection (MOI) previously determined to provide complete cell killing by 6 days of culture post-infection (e.g., MOI of 0.01-0.05). Each of the HIV isolates was pre-titered to induce equivalent levels of infection based on cell killing or virus production, prior to their use in these assays. A range of test compound concentrations was added to the wells in triplicate (e.g., serial half-log dilutions) to evaluate inhibition of HIV infection. Controls for each assay included drug controls (drug colorimetric control wells), drug cytotoxicity control wells (cells with drug), virus control wells (cells with virus), and cell viability controls (cells only). Positive control drugs (e.g. AZT and ddC) were also run in parallel.
(§3) After six days of incubation at 37° C., cell viability was determined spectrophotometrically at 450 nm for each well, using the metabolic reduction of XTT to a soluble colored formazan. (See, Gartner and Popovic, “Virus Isolation and Production, in Aldovini and Walker (eds.), Techniques in HIV Research, Stockton Press, NY, pp. […] [1991]; and Nara and Fischinger, “Quantitative Infectivity Assay for HIV-1 and HIV-2, ” Nature 332:469-470 [1988]).
(§4) The in vitro therapeutic index (TI50) was defined as the fold-difference between the EC50 and IC50. The results for the various compounds are included in FIGS. 8 and 19.

[1] = test system: HIV-1 isolate 4xAZT (AZT drug-resistant variant); experiment: Cytopathic cell killing assay, MT-4 cells, isolate 4xAZT; format: cell-based; settings: Human immunodeficiency virus 1, MT4, read-out: EC50, isolate 4XAZT
Description: as §1
(§5) In this Example, the antiviral and cellular toxicity of NNRTIs was investigated, using the cytopathic cell killing assay described by Yang (Yang et al., “Characteristics of a Group of Non-nucleoside Reverse Transcriptase Inhibitors with Structural Diversity and Potent Anti-Human Immunodeficiency Virus Activity,” Leukemia 9:S75-S85 [1995]). Briefly, in this method cells (e.g., the CEM-SS cell line, available from the NIAID AIDS Research and Reference Program [ARRRP]) were seeded at a density of 5×10^3 cells/well, into the wells of a 96-well microtiter plate. The cells were then infected with HIV virus (either mutant or WT), at a multiplicity of infection (MOI) previously determined to provide complete cell killing by 6 days of culture post-infection (e.g., MOI of 0.01-0.05). Each of the HIV isolates was pre-titered to induce equivalent levels of infection based on cell killing or virus production, prior to their use in these assays. A range of test compound concentrations was added to the wells in triplicate (e.g., serial half-log dilutions) to evaluate inhibition of HIV infection. […]
(§6) After six days of incubation at 37° C., cell viability was determined spectrophotometrically at 450 nm for each well, using the metabolic reduction of XTT to a soluble colored formazan. (See, Gartner and Popovic, “Virus Isolation and Production, in Aldovini and Walker (eds.), Techniques in HIV Research, Stockton Press, NY, pp. […] [1991]; and Nara and Fischinger, “Quantitative Infectivity Assay for HIV-1 and HIV-2, ” Nature 332:469-470 [1988]). […]

HIV-1 isolate K103N = experiment: Cytopathic cell killing assay, MT-4 cells, isolate K103N; format: cell-based; settings: cytopathic cell killing assay
Description: as §1, §2, §3, §4

[2] = test system: WT and HIV-1 variants containing amino acid substitutions in RT; format: cell-based; settings: cytopathic cell killing assay, NNRTI-resistant HIV isolates
Description: In these Tables, antiviral data are reported as the quantity of drug in μM required to reduce cell killing or virus production by 50% (EC50). The various HIV isolates tested in the Figures are those corresponding to wild-type virus (NL4-3) and the other strains listed by their RT mutations. The three 4×AZT isolates included in the Figures represent AZT drug-resistant variants.
Briefly, in this method cells (e.g., the CEM-SS cell line, available from the NIAID AIDS Research and Reference Program [ARRRP]) were seeded at a density of 5×10^3 cells/well, into the wells of a 96-well microtiter plate. The cells were then infected with HIV virus (either mutant or WT), at a multiplicity of infection (MOI) previously determined to provide complete cell killing by 6 days of culture post-infection (e.g., MOI of 0.01-0.05). Each of the HIV isolates was pre-titered to induce equivalent levels of infection based on cell killing or virus production, prior to their use in these assays. A range of test compound concentrations was added to the wells in triplicate (e.g., serial half-log dilutions) to evaluate inhibition of HIV infection. Controls for each assay included drug controls (drug colorimetric control wells), drug cytotoxicity control wells (cells with drug), virus control wells (cells with virus), and cell viability controls (cells only). Positive control drugs (e.g. AZT and ddC) were also run in parallel.
as §3
Antiviral and toxicity data were reported as the quantity of drug required to inhibit 50% of virus-induced cell killing or virus production (EC50), and the quantity of drug required to […] (IC50). The in vitro therapeutic index (TI50) was defined as the fold-difference between the EC50 and IC50.

HIV-1 isolate K101E = experiment: Cytopathic cell killing assay, MT-4 cells, isolate K101E; format: cell-based; settings: Human immunodeficiency virus 1, MT4, read-out: EC50, isolate K101E, Table 10; values in μM
Description: as §1, §2, §3, §4

HIV-1 WT virus (NL4-3) = experiment: microbe, parasite or virus in culture; format: cell-based; settings: Human immunodeficiency virus 1, NL43, CEM-SS, read-out: EC50
Outline: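 CEM-SS cells (5×10^3/well) infected with HIV-1 NL4-3 at MOI giving complete killing by day 6 (e.g., 0.01-0.05), with half-log compound dilutions in triplicate. After six days at 37° C., viability measured by XTT reduction at 450 nm; CIC50 is 50% inhibitory concentration of cytopathic killing.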

HIV-1 isolate A98G = experiment: Cytopathic cell killing assay, MT-4 cells, isolate A98G; format: cell-based; settings: Human immunodeficiency virus 1, MT4, read-out: EC50, isolate A98G, Table 8; MT-4 cells
Description: as §1, §2, §3, §4

HIV-1 isolate M184I = experiment: Cytopathic cell killing assay, isolate M184I; format: cell-based; settings: Human immunodeficiency virus 1, read-out: EC50, isolate M184I
Description: as §1, §5, §6

HIV-1 isolate V108I = experiment: Cytopathic cell killing assay, MT-4 cells, isolate V108I; format: cell-based; settings: Human immunodeficiency virus 1, MT4, read-out: EC50, isolate V108I, Table 10; values in μM
Description: as §1, §2, §3, §4

HIV-1 isolate L100I = experiment: Cytopathic cell killing assay, MT-4 cells, isolate L100I; format: cell-based; settings: Human immunodeficiency virus 1, MT4, read-out: EC50, isolate L100I, Table 10; values in μM
Description: as §1, §2, §3, §4

HIV-1 isolate Y181C = experiment: Cytopathic cell killing assay, MT-4 cells, isolate Y181C; format: cell-based
Description: as §1, §2, §3, §4

For `COc1cccc2c1nc(-c1c(F)cccc1F)n2Cc1c(F)cccc1F` [Compound 5006, 1-(2,6-difluorobenzyl)-2-(2,6-difluorophenyl)-4-methoxylbenzimidazole], the EC50 (HIV-1 isolate Y188H) was 260 nM, the EC50 [1] was 600 nM and the “activity against K103N, result in words” value (HIV-1 isolate K103N) was “failed to show any activity”. For the same compound, the “cross-resistance profile, result in words” value [2] was “inhibit HIV-1 better than TZB; also recorded: equal or better against the various variants than nevirapine”, the “cross-resistance profile, result in words” value ([2]; listed as 44) was “retained the best activity against the different RT variants; also recorded: retains activity comparable with nevirapine” and the EC50 (HIV-1 isolate K101E) was 2.82 µM. The EC50 (HIV-1 WT virus (NL4-3); Table 7, drug concentration required to reduce cell killing or virus production by 50%, WT) was 4.6 nM, the EC50 (HIV-1 WT virus (NL4-3); Table 11, CEMSS/NL4-3, NRVC = no reduction in viral CPE) was 60 nM and the EC50 (HIV-1 WT virus (NL4-3); text b130, cytopathic cell killing assay, WT) was 4.6 nM. For the same compound, the EC50 (HIV-1 isolate A98G) was 300 nM, the EC50 (HIV-1 isolate M184I) was 160 nM and the EC50 (HIV-1 isolate V108I) was 2.82 µM. For the same compound, the EC50 (HIV-1 isolate L100I) was 0.16 µM, the EC50 (HIV-1 isolate Y181C; Human immunodeficiency virus 1, MT4, read-out: EC50, isolate Y181C, Table 10, values in μM) was 0.26 µM and the “activity against Y181C, result in words” value (HIV-1 isolate Y181C; cytopathic cell killing assay) was “maintaining activity”. For the same compound, the melting point was 154 to 155 °C.
